From ChEMBL document CHEMBL1201862, “PubChem BioAssay data set” (2004)
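Briefly, cells in 96-well plates were exposed to five compound concentrations for 48 h, and endpoints were estimated by linear interpolation. At the GI50, growth is halved.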 Calls of active or inactive are those of the source. Rule as the data show it: active = GI50 up to about 1.1 µM and inactive = higher. Where a SMILES comes first, the peptide text is derived from it. The star is where a group is joined. Cbz = O=C(OCc1ccccc1)*; OBn = c1ccc(CO*)cc1

Columns and labels:
Test in all cases: NCI anticancer screen, dose series, 48 h
OVCAR-5 = test system: OVCAR-5
NCI-H226 = test system: NCI-H226
SW-620 = test system: SW-620
HCT-15 = test system: HCT-15
HOP-92 = test system: HOP-92
SNB-75 = test system: SNB-75
NCI-H522 = test system: NCI-H522
HCT-116 = test system: HCT-116
CAKI-1 = test system: CAKI-1
ACHN = test system: ACHN
SR = test system: SR
EKVX = test system: EKVX
SF-295 = test system: SF-295
OVCAR-8 = test system: OVCAR-8
BT-549 = test system: BT-549
MDA-MB-435 = test system: MDA-MB-435
PC-3 = test system: PC-3
NCI/ADR-RES = test system: NCI/ADR-RES
MDA-N = test system: MDA-N

SMILES	GI50 (OVCAR-5)	GI50 (NCI-H226)	GI50 (SW-620)	GI50 (HCT-15) [µM]	GI50 (HOP-92)	GI50 (SNB-75)	GI50 (NCI-H522)	GI50 (HCT-116)	GI50 (CAKI-1)	GI50 (ACHN)	GI50 (SR)	GI50 (EKVX)	GI50 (SF-295)	GI50 (OVCAR-8)	GI50 (BT-549)	GI50 (MDA-MB-435)	GI50 (PC-3)	GI50 (NCI/ADR-RES)	GI50 (MDA-N)
CCOC(=O)C(C(=O)Cc1ccccc1)c1ccccc1 (stereo not drawn)	> 100 µM (inactive)	> 100 µM (inactive)	> 100 µM (inactive)	> 100	57 µM (inactive)	80 µM (inactive)	> 100 µM (inactive)	> 100 µM (inactive)	> 100 µM (inactive)	> 100 µM (inactive)	> 100 µM (inactive)	> 100 µM (inactive)	> 100 µM (inactive)	> 100 µM (inactive)	–	–	–	–	–
Cc1ccc(C2=Nc3ccccc3[S+]([O-])C(c3ccc4c(c3)OCO4)C2)cc1 (stereo not drawn)	–	52.6 µM (inactive)	18.5 µM (inactive)	–	–	88.3 µM (inactive)	18.3 µM (inactive)	16.6 µM (inactive)	24.5 µM (inactive)	20.3 µM (inactive)	22.2 µM (inactive)	52 µM (inactive)	40.1 µM (inactive)	20.5 µM (inactive)	–	–	–	–	–
COc1cccc(CC(C)NCC(O)c2ccc(O)c(O)c2)c1 (stereo not drawn)	17.3 µM (inactive)	24.8 µM (inactive)	33 µM (inactive)	44.6	6.59 µM (inactive)	19 µM (inactive)	34.8 µM (inactive)	28.8 µM (inactive)	35 µM (inactive)	36.6 µM (inactive)	17.4 µM (inactive)	57.3 µM (inactive)	> 100 µM (inactive)	18.7 µM (inactive)	42.7 µM (inactive)	44.4 µM (inactive)	46.1 µM (inactive)	> 100 µM (inactive)	–
CC(C)(C)N/N=C(\C(=O)NC1=C(Cl)C(=O)c2ccccc2C1=O)C1C=CCS1(=O)=O (stereo not drawn)	21.2 µM (inactive)	12.6 µM (inactive)	> 100 µM (inactive)	7.06	14.1 µM (inactive)	11.1 µM (inactive)	12.5 µM (inactive)	15.5 µM (inactive)	18.4 µM (inactive)	16.1 µM (inactive)	–	16.5 µM (inactive)	12.6 µM (inactive)	19.8 µM (inactive)	12.4 µM (inactive)	–	18.1 µM (inactive)	22 µM (inactive)	2.44 µM (inactive)
COc1cccc(CCNC(=O)Cc2ccccc2CCO)c1	> 100 µM (inactive)	> 100 µM (inactive)	> 100 µM (inactive)	> 100	> 100 µM (inactive)	> 100 µM (inactive)	> 100 µM (inactive)	> 100 µM (inactive)	> 100 µM (inactive)	> 100 µM (inactive)	> 100 µM (inactive)	> 100 µM (inactive)	> 100 µM (inactive)	> 100 µM (inactive)	> 100 µM (inactive)	> 100 µM (inactive)	> 100 µM (inactive)	> 100 µM (inactive)	–
COC1C=COC2(C)Oc3c(C)c(O)c4c(O)c(c(C5SCCS5)c(O)c4c3C2=O)NC(=O)/C(C)=C\C=CC(C)C(O)C(C)C(O)C(C)C(OC(C)=O)C1C (stereo not drawn)	12.7 µM (inactive)	9.04 µM (inactive)	5.42 µM (inactive)	9.66	10.1 µM (inactive)	7.53 µM (inactive)	4.75 µM (inactive)	5.02 µM (inactive)	9.91 µM (inactive)	3.01 µM (inactive)	3.15 µM (inactive)	–	4.74 µM (inactive)	7.87 µM (inactive)	3.84 µM (inactive)	4.26 µM (inactive)	4.98 µM (inactive)	15.5 µM (inactive)	–
CC(=O)OC1C(Oc2c(C)cc3c(c2O)[C@@H](C)CC[C@@H]3[C@@H](C)CCC=C(C)C)OCC(O)C1O (stereo partly drawn)	16.9 µM (inactive)	17.6 µM (inactive)	18.7 µM (inactive)	17.5	–	–	21.2 µM (inactive)	18.2 µM (inactive)	19.5 µM (inactive)	20.2 µM (inactive)	22.9 µM (inactive)	–	19.4 µM (inactive)	21.9 µM (inactive)	–	14.6 µM (inactive)	20.3 µM (inactive)	21.1 µM (inactive)	21 µM (inactive)
C[N+](C)([O-])Cc1cccc(NC(=O)c2ccc(C(=O)Nc3cccc(C[N+](C)(C)[O-])c3)cc2)c1	> 100 µM (inactive)	> 100 µM (inactive)	> 100 µM (inactive)	> 100	> 100 µM (inactive)	–	> 100 µM (inactive)	> 100 µM (inactive)	> 100 µM (inactive)	> 100 µM (inactive)	> 100 µM (inactive)	> 100 µM (inactive)	> 100 µM (inactive)	> 100 µM (inactive)	> 100 µM (inactive)	–	> 100 µM (inactive)	> 100 µM (inactive)	–
O=[N+]([O-])c1ccc2oc(=N/c3ccccc3)/c(=N\c3ccccc3)[nH]c2c1	> 100 µM (inactive)	> 100 µM (inactive)	> 100 µM (inactive)	> 100	28.2 µM (inactive)	18 µM (inactive)	6.97 µM (inactive)	48.2 µM (inactive)	61.1 µM (inactive)	24.7 µM (inactive)	> 100 µM (inactive)	70.5 µM (inactive)	47.9 µM (inactive)	75.3 µM (inactive)	–	> 100 µM (inactive)	65.3 µM (inactive)	51.1 µM (inactive)	54.5 µM (inactive)
O=C1NC(=S)N(c2ccccc2)C1=O	> 100 µM (inactive)	> 100 µM (inactive)	> 100 µM (inactive)	> 100	> 100 µM (inactive)	> 100 µM (inactive)	3.79 µM (inactive)	> 100 µM (inactive)	> 100 µM (inactive)	> 100 µM (inactive)	> 100 µM (inactive)	> 100 µM (inactive)	> 100 µM (inactive)	> 100 µM (inactive)	–	> 100 µM (inactive)	> 100 µM (inactive)	> 100 µM (inactive)	–
COC(=O)c1c2c(cc3c1CC1(Cc4ccccc4C1=O)C3)CCC2 (stereo not drawn)	> 100 µM (inactive)	2.58 µM (inactive)	31.8 µM (inactive)	21.4	23 µM (inactive)	19.4 µM (inactive)	49.8 µM (inactive)	26.6 µM (inactive)	10.7 µM (inactive)	23.9 µM (inactive)	15.6 µM (inactive)	15.9 µM (inactive)	55.6 µM (inactive)	44.1 µM (inactive)	–	13.5 µM (inactive)	55.7 µM (inactive)	19.8 µM (inactive)	8.55 µM (inactive)
C=CCn1c(-c2ccc(/N=N/Nc3ccc(-c4n[nH]c(=S)n4CC=C)cc3)cc2)n[nH]c1=S	28 µM (inactive)	2.32 µM (inactive)	7.13 µM (inactive)	4.59	7.31 µM (inactive)	3.93 µM (inactive)	2.92 µM (inactive)	–	4.57 µM (inactive)	2.21 µM (inactive)	2.84 µM (inactive)	5.55 µM (inactive)	3.39 µM (inactive)	2.8 µM (inactive)	2.3 µM (inactive)	3.33 µM (inactive)	3.17 µM (inactive)	21.4 µM (inactive)	–
CNC(=O)C1(C#N)C(c2ccccc2)C(C#N)(C(=O)NC)C1c1ccccc1 (stereo not drawn)	> 100 µM (inactive)	98.9 µM (inactive)	> 100 µM (inactive)	> 100	> 100 µM (inactive)	> 100 µM (inactive)	> 100 µM (inactive)	> 100 µM (inactive)	> 100 µM (inactive)	> 100 µM (inactive)	> 100 µM (inactive)	> 100 µM (inactive)	> 100 µM (inactive)	> 100 µM (inactive)	–	> 100 µM (inactive)	> 100 µM (inactive)	> 100 µM (inactive)	> 100 µM (inactive)
Cc1cc(OCc2nnc3n2S(=O)(=O)c2ccccc2N3C)ccc1Cl	> 100 µM (inactive)	31.2 µM (inactive)	> 100 µM (inactive)	> 100	16.1 µM (inactive)	–	6.79 µM (inactive)	39.5 µM (inactive)	28.8 µM (inactive)	19.9 µM (inactive)	–	33.1 µM (inactive)	18.8 µM (inactive)	26.3 µM (inactive)	18.2 µM (inactive)	> 100 µM (inactive)	95.5 µM (inactive)	35.7 µM (inactive)	–
CCN(CCCl)c1cc(CN(C)C)cc(NC(=O)c2cc(C(=O)Nc3cc(CN(C)C)cc(N(CC)CCCl)c3)n(C)n2)c1	2.32 µM (inactive)	1.43 µM (inactive)	0.0962 µM (active)	2.31	1.11 µM (active)	0.271 µM (active)	0.115 µM (active)	0.227 µM (active)	0.557 µM (active)	0.0828 µM (active)	0.0119 µM (active)	–	0.78 µM (active)	0.143 µM (active)	–	0.213 µM (active)	0.164 µM (active)	10.3 µM (inactive)	1.22 µM (inactive)
Cc1cccc(NC(=O)CC(=O)N2N=C(N3c4ccccc4Sc4ccccc43)CC2c2ccccc2)c1 (stereo not drawn)	> 100 µM (inactive)	> 100 µM (inactive)	> 100 µM (inactive)	> 100	> 100 µM (inactive)	> 100 µM (inactive)	> 100 µM (inactive)	> 100 µM (inactive)	–	> 100 µM (inactive)	> 100 µM (inactive)	> 100 µM (inactive)	> 100 µM (inactive)	> 100 µM (inactive)	> 100 µM (inactive)	> 100 µM (inactive)	> 100 µM (inactive)	> 100 µM (inactive)	–
COC(=O)C(Cc1ccc(O)cc1)NC(=O)C(CC(=O)OCc1ccccc1)NC(=O)OCc1ccccc1 (stereo not drawn) (Cbz-Asp(OBn)-Tyr-OMe; configuration not given here)	22.7 µM (inactive)	21.4 µM (inactive)	22.4 µM (inactive)	18.3	51.1 µM (inactive)	17.9 µM (inactive)	–	19.3 µM (inactive)	–	20.1 µM (inactive)	22.8 µM (inactive)	23.8 µM (inactive)	–	20.5 µM (inactive)	22.6 µM (inactive)	–	17.7 µM (inactive)	–	19.4 µM (inactive)
